Results published in PubChem BioAssay AID2060508 (Molecular Pharmacology Branch, DTP, NCI, 2025).
pIC50: −log10 of the molar value.

System: 454973-116-R2-J3-PDC spheroids, viability, % test/control
Assay: Anticancer human tumor 454973-116-R2-J3-PDC patient-derived pancreatic carcinoma cell line growth inhibition [GQUAD]
Conditions: spheroids with HUVEC and MSC; for pIC50: curve of first compound; for viability, T/C: stronger effect = lower value
Text: DNA G-quadruplex Stabilizer Agents in Combinations in Complex Spheroids
A high-throughput screen of multi-cell type tumor spheroids was designed to identify active combinations of DNA G-quadruplex stabilizer agents and targeted small molecules. Complex spheroids include a stromal component modeled by human endothelial cells (HUVEC) and fibroblasts modeled by human mesenchymal stem cells (MSCs). The concentration ranges selected for each drug and investigational agent were based upon clinically achievable concentrations if the clinical Cmax of the agent was known.
Compounds. The drugs and investigational agents: pidnarulex (CX-5461; NSC782164), APTO-253 (NSC789042), BRACO-19 (NSC847499), peposertib (NSC802822), ceralasertib (NSC780249), elimusertib (NSC800525), camonsertib (NSC841442), AZD-1390 (NSC803789), olaparib (NSC753686), talazoparib (NSC767125), ART-558 (NSC835418), sotorasib (NSC818433), MRTX-1133 (NSC836407), SN-38 (NSC673596), topotecan (NSC609699), etoposide (NSC141540), doxorubicin (NSC123127), gemcitabine (NSC613327), 5-fluorouracil (NSC19893), paclitaxel (NSC125973), vemurafenib (NSC761431), panobinostat (NSC761190), R-306465 (JNJ-16241199; NSC773264), adavosertib (NSC754352), TP-3654 (NSC805149), carboplatin (NSC241240), KSQ-4279 (NSC840948), and staurosporine (NSC755774) were obtained from the National Cancer Institute (NCI) Developmental Therapeutics Program Chemical Repository (34). The FDA-approved anticancer drug set is available from the NCI Developmental Therapeutics Program. […] The stock solutions were prepared in dimethyl sulfoxide (DMSO, Sigma-Aldrich, St. Louis, MO, cat. D2650) at 800-fold the tested concentration and stored at -70 degrees C prior to their use. All drugs and investigational agents were tested over a range starting from a high concentration at or near the clinical Cmax and decreasing in half-log increments. If the clinical Cmax for an agent had not been determined, the highest concentration tested was 10 microM.
2.3 Cell Culture. All cells were maintained in an incubator at 37 degrees C and 5% CO2 with 95% humidity. The PDC lines were cultured according to standard operating procedures established by the NCI PDMR. All PDCs were thawed and cultured in Matrigel-coated flasks prepared with a working solution of 1X Ham's F-12 nutrient mix, without supplementation (Invitrogen, cat. 11765054), 100 U/mL penicillin-streptomycin (Invitrogen, cat. 15140122), and 2.5% Matrigel (Corning Inc., cat. 354248) for the first three passages. The 857933-349-R-J2-PDC line was cultured in 6C/Colon 1B media, which includes advanced DMEM/F-12 (Thermo Fisher Scientific, cat. 12634028), 10 mM HEPES (Thermo Fisher Scientific, cat. 15630080), 1X GlutaMAX supplement (Thermo Fisher Scientific, cat. 35050061), 0.1 mg/mL primocin (InvivoGen, cat. ant-pm-2), 10% defined fetal bovine serum, heat inactivated (HyClone Laboratories Inc., cat. SH30070.03HI), 50% L-WRN conditioned media (ATCC, cat. CRL-3276), 1.25 mM N-Acetyl-L-cysteine (Sigma-Aldrich, cat. A9165), 10 mM nicotinamide (Sigma-Aldrich, cat. N0636), 1X B-27 supplement (Thermo Fisher Scientific, cat. 17504044), 1X N-2 supplement (Thermo Fisher Scientific, cat. 17502048), 10 microM Y-27632 dihydrochloride (Tocris Bioscience, cat. 1254), and 50 ng/mL human EGF recombinant protein (Thermo Fisher Scientific, cat. PHG0311). The 485176-168-R4-J1-PDC line was cultured in Panc media, which includes all 6C/Colon 1B media components plus 100 ng/mL human FGF-10 (Thermo Fisher Scientific, cat. 100-26), 500 nM SB-431542 (Selleckchem, cat. S1067), and gastrin (Tocris, cat. 3006).
[…]

[1] = second compound 0.0316 µM, first compound 0.0316 µM
[2] = second compound 0.0316 µM, first compound 0.1 µM
[3] = second compound 0.0316 µM, first compound 0.316 µM
[4] = second compound 0.0316 µM, first compound 1 µM
[5] = second compound 0.0316 µM, first compound 3.16 µM
[6] = second compound 0.0316 µM, first compound 10 µM
[7] = second compound 0.1 µM, first compound 0.0316 µM
[8] = second compound 0.1 µM, first compound 0.1 µM
[9] = second compound 0.1 µM, first compound 0.316 µM
[10] = second compound 0.1 µM, first compound 1 µM
[11] = second compound 0.1 µM, first compound 3.16 µM
[12] = second compound 0.1 µM, first compound 10 µM
[13] = second compound 0.316 µM, first compound 0.0316 µM
[14] = second compound 0.316 µM, first compound 0.1 µM
[15] = second compound 0.316 µM, first compound 0.316 µM
[16] = second compound 0.316 µM, first compound 1 µM
[17] = second compound 0.316 µM, first compound 3.16 µM
[18] = second compound 0.316 µM, first compound 10 µM
[19] = second compound 1 µM, first compound 0.0316 µM
[20] = second compound 1 µM, first compound 0.1 µM
[21] = second compound 1 µM, first compound 0.316 µM
[22] = second compound 1 µM, first compound 1 µM
[23] = second compound 1 µM, first compound 3.16 µM
[24] = second compound 1 µM, first compound 10 µM
[25] = second compound 3.16 µM, first compound 0.0316 µM
[26] = second compound 3.16 µM, first compound 0.1 µM
[27] = second compound 3.16 µM, first compound 0.316 µM
[28] = second compound 3.16 µM, first compound 1 µM
[29] = second compound 3.16 µM, first compound 3.16 µM
[30] = second compound 3.16 µM, first compound 10 µM
[31] = second compound 10 µM, first compound 0.0316 µM
[32] = second compound 10 µM, first compound 0.1 µM
[33] = second compound 10 µM, first compound 0.316 µM
[34] = second compound 10 µM, first compound 1 µM
[35] = second compound 10 µM, first compound 3.16 µM
[36] = second compound 10 µM, first compound 10 µM
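Further: spheroids exposed to compounds for seven days.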

For `C=CCn1c(=O)c2cnc(Nc3ccc(N4CCN(C)CC4)cc3)nc2n1-c1cccc(C(C)(C)O)n1` + Cc1cnc(CNC(=O)c2c(=O)c3ccc(N4CCCN(C)CC4)nc3n3c2sc2ccccc23)cn1, the pIC50 (second compound 0.0316 µM) was 6.72, the pIC50 (second compound 0.1 µM) was 6.92 and the pIC50 (second compound 0.316 µM) was 6.96. For the same compound, the pIC50 (second compound 1 µM) was 6.58, the pIC50 (second compound 3.16 µM) was 6.73 and the pIC50 (second compound 10 µM) was > 7.50. It also gave a viability, T/C [1] of 98%, a viability, T/C [2] of 78.8% and a viability, T/C [3] of 27%. The viability, T/C [4] was 11.7%, the viability, T/C [5] was 6.73% and the viability, T/C [6] was 10.2%. For the same compound, the viability, T/C [7] was 76.5%, the viability, T/C [8] was 53.6% and the viability, T/C [9] was 29.8%. For the same compound, the viability, T/C [10] was 12%, the viability, T/C [11] was 8.47% and the viability, T/C [12] was 8.54%. For the same compound, the viability, T/C [13] was 57.6%, the viability, T/C [14] was 49.7% and the viability, T/C [15] was 37.2%. For the same compound, the viability, T/C [16] was 18.1%, the viability, T/C [17] was 9.06% and the viability, T/C [18] was 9.69%. It also gave a viability, T/C [19] of 60.9%, a viability, T/C [20] of 59.2% and a viability, T/C [21] of 48.2%. It also gave a viability, T/C [22] of 22.4%, a viability, T/C [23] of 13.7% and a viability, T/C [24] of 13.6%. It also gave a viability, T/C [25] of 58.3%, a viability, T/C [26] of 63.1% and a viability, T/C [27] of 40.8%. For the same compound, the viability, T/C [28] was 23.9%, the viability, T/C [29] was 18.2% and the viability, T/C [30] was 21.9%. For the same compound, the viability, T/C [31] was 0.34%, the viability, T/C [32] was 20.9% and the viability, T/C [33] was 23.4%. It also gave a viability, T/C [34] of 0.26%, a viability, T/C [35] of 0.3% and a viability, T/C [36] of 0.38%.

In the case of `O=C(NO)c1cnc(N2CCN(S(=O)(=O)c3ccc4ccccc4c3)CC2)nc1` + Cc1cnc(CNC(=O)c2c(=O)c3ccc(N4CCCN(C)CC4)nc3n3c2sc2ccccc23)cn1, the pIC50 (second compound 0.0316 µM) was 6.70, the pIC50 (second compound 0.1 µM) was 6.79 and the pIC50 (second compound 0.316 µM) was 6.84. The pIC50 (second compound 1 µM) was 6.85, the pIC50 (second compound 3.16 µM) was 6.89 and the pIC50 (second compound 10 µM) was > 7.50. It also gave a viability, T/C [1] of 105%, a viability, T/C [2] of 81.9% and a viability, T/C [3] of 28.5%. For the same compound, the viability, T/C [4] was 1.33%, the viability, T/C [5] was 0.09% and the viability, T/C [6] was 0.11%. It also gave a viability, T/C [7] of 87.1%, a viability, T/C [8] of 68.6% and a viability, T/C [9] of 24.8%. For the same compound, the viability, T/C [10] was 1.02%, the viability, T/C [11] was 0.59% and the viability, T/C [12] was 0.1%. It also gave a viability, T/C [13] of 67.4%, a viability, T/C [14] of 61.9% and a viability, T/C [15] of 23.6%. For the same compound, the viability, T/C [16] was 0.34%, the viability, T/C [17] was 0.11% and the viability, T/C [18] was 0.12%. The viability, T/C [19] was 59.5%, the viability, T/C [20] was 64.1% and the viability, T/C [21] was 21.8%. It also gave a viability, T/C [22] of 0.41%, a viability, T/C [23] of 0.09% and a viability, T/C [24] of 0.13%. For the same compound, the viability, T/C [25] was 67.9%, the viability, T/C [26] was 60.9% and the viability, T/C [27] was 13.3%. The viability, T/C [28] was 0.48%, the viability, T/C [29] was 0.95% and the viability, T/C [30] was 0.53%. The viability, T/C [31] was 0.19%, the viability, T/C [32] was 21.1% and the viability, T/C [33] was 0.26%. For the same compound, the viability, T/C [34] was 0.2%, the viability, T/C [35] was 0.19% and the viability, T/C [36] was 0.19%.
